Source: publication PMC3265476, “Functional Characterization of MODY2 Mutations Highlights the Importance of the Fine-Tuning of Glucokinase and Its Role in Glucose Sensing” (PLoS ONE, 2012)
Residue numbers refer to the chain shown, from its start. Like-named read-outs stand apart in the source and are kept apart here.

Assays:
Type in all cases: biochemical
[1] = target: T1, GST-GK(p.Ala449Thr) (Homo sapiens, UniProt P35557, A449T); test: Effect of GK synthetic activator on kinetic parameters
T1 construct: made in house; host or cells: E. coli
T1 sequence (P35557 1-465 A449T): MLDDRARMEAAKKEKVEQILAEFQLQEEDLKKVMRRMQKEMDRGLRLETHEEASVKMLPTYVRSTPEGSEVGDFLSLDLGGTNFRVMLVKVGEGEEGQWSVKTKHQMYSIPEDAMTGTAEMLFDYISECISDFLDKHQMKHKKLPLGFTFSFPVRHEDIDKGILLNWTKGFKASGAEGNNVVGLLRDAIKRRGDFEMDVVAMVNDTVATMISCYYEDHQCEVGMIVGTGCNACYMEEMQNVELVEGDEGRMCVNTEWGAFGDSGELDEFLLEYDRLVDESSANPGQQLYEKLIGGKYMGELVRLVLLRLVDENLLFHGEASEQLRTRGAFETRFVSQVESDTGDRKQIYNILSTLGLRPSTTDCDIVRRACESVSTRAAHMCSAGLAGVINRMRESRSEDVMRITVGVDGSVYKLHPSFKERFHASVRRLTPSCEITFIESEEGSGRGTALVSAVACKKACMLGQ
Description: (§1) Glucokinase activity was measured spectrophotometrically on a spectrophotometer Uviconxl (Secoman), using an NADP^+-coupled assay with glucose-6-phosphate dehydrogenase, as described previously. The final reaction mixture contained 100 mM Tris pH 7.4, 150 mM KCl, 1 mM MgCl2, 1.4 mM ß-mercaptoethanol, 0.1% BSA, 5 mM ATP-MgCl2, 1 mM NADP^+, and 1 U/ml glucose-6-phosphate dehydrogenase. Determination of kinetic parameters and thermal stability tests were performed as in [20]. […] Inhibition by NAG and MH was determined under standard assay conditions with 50 nM glucokinase. The inhibition by palmitoylCoA was determined in reaction mixtures containing 25 mM Hepes pH 7.1; 25 mM KCl; 1 mM NADP, 1 mM ATP-MgCl2; 2.5 mM MgCl2; 5 mM ß-mercaptoethanol, 1 U/ml glucose-6-phosphate dehydrogenase and 61 nM glucokinase. Due to the low Kcat value of mutant GST-GK(pAla449Thr), the amount of protein used in inhibition assays was 180 nM to get sufficient activity to allow for accurate determination of the inhibitor effect. In these conditions, GK activity (U/mg of GST-GK(pAla449Thr)) in the absence of inhibitors was 1.3±0.08, 1.1±0.06 and 0.9±0.05 at 2, 1.5 and 1 mM of glucose, respectively for NAG and MH assays and 0.5±0.05, 0.33±0.03 and 0.27±0.03 at 2, 1.5 and 1 mM glucose, respectively for palmitoyl-CoA assay.
(§2) GK activator LY2121260 was kindly provided by Elli Lilly and Co, Indianapolis, IN, USA. A stock solution of 1 mM LY2121260 was prepared in 12.5 mM Hepes pH 7.4 with 80% DMSO. Results are shown as means ± SEM, and statistical significance was analysed by the two-tailed Student's t-test. P values of <0.05 were considered statistically significant. The structural analysis of mutations was carried out using the crystal structure of human GK [18] and visualized using the Pymol Molecular Graphics System (Schrödinger).

[2] = target: T2, Wild-type GST-GK (Homo sapiens, UniProt P35557); test: as above
T2 construct: made in house; host or cells: E. coli
T2 sequence (P35557 1-465): T1 sequence (P35557 1-465 A449T) with T449A
Description: as §1, §2

[3] = target: T1, GST-GK(p.Ala449Thr); test: Inhibition of glucokinase activity by NAG and MH, Dixon plots; details: for IC50: glucose 1, 1.5 and 2 mM, 180 nM protein
Description: as §1

[4] = target: T3, GST-GK(p.Gly223Ser) (Homo sapiens, UniProt P35557, G223S); test: as above; details: glucose 12.5, 25 and 50 mM
T3 construct: made in house; host or cells: E. coli
T3 sequence (P35557 1-465 G223S): T1 sequence (P35557 1-465 A449T) with G223S, T449A
Description: as §1

[5] = target: T2, Wild-type GST-GK; test: as above; details: glucose 2, 5 and 8 mM, 50 nM glucokinase
Description: as §1

[6] = target: T1, GST-GK(p.Ala449Thr); test: Inhibition of glucokinase activity by human GKRP; details: 5 mM glucose; GKRP 0 to 200 nM; 10 µM S6P or 0.2 mM F1P
Description: Purified human GKRP was kindly provided by KJ Brocklehurst (Cardiovascular and Gastrointestinal Department, AstraZeneca, Macclesfield, Cheshire SK10 4TG, UK). The effect of GKRP on glucokinase activity was determined as described. The final reaction mixture contained 25 mM Hepes pH 7.1; 25 mM KCl; 1 mM NADP, 1 mM ATP-MgCl2; 2.5 mM MgCl2; 5 mM ß-mercaptoethanol, 1 U/ml glucose-6-phosphate dehydrogenase, 61 nM of GST-GK or 180 nM GST-GK(pAla449Thr), 5 mM glucose, GKRP (0 to 200 nM) and, when indicated, 10 µM sorbitol-6-phosphate (S6P) or 0.2 mM fructose-1-phosphate (F1P). In these conditions, GST-GK(pAla449Thr) activity in the absence of GKRP was 0.8±0.09 U/mg of protein.
Figure 2 Effect of mutation p.Ala449Thr on the GK interaction with GKRP. A) Inhibition of glucokinase activity by human GKRP. Enzyme activity was measured at 5 mM glucose as described in Material and Methods, in the presence of 10 µM S6P (left panel) or 0.2 mM F1P (right panel). Results are means ± SEM for three independent enzyme purifications assayed in triplicate. B) Two-hybrid interaction of GBD-GKRP with GAD-GK or GAD-GK(p.Ala449Thr) mutant. Yeast strain Y187 was used, and fusion proteins were expressed from pGBKT7 and pACTII derivatives. Values are means ± SEM from ß-galactosidase activity of six independent transformants.

[7] = system: human beta-cell glucokinase; test: Kinetic analysis of recombinant GST-GK fusion proteins (NADP+-coupled assay with glucose-6-phosphate dehydrogenase); details: for S0.5 for glucose: means ± SEM; for overall activity, % of the wild-type protein: reflected in the relative activity index; for nH (Hill coefficient): unit less
Description: The expression and purification of fusion proteins from E. coli was performed as described previously [22]. Fusion proteins were stored at a concentration of about 1 mg/ml at −80°C in 30% glycerol, 50 mM glucose, 10 mM glutathione, 5 mM DTT, 200 mM KCl and 50 mM Tris/HCl pH = 8.0. Protein concentrations were determined using the Bio-Rad Protein Assay (Bio-Rad Laboratories, GmbH), with bovine serum albumin as standard.
Glucokinase activity was measured spectrophotometrically on a spectrophotometer Uviconxl (Secoman), using an NADP^+-coupled assay with glucose-6-phosphate dehydrogenase, as described previously [22]. The final reaction mixture contained 100 mM Tris pH 7.4, 150 mM KCl, 1 mM MgCl2, 1.4 mM ß-mercaptoethanol, 0.1% BSA, 5 mM ATP-MgCl2, 1 mM NADP^+, and 1 U/ml glucose-6-phosphate dehydrogenase. Determination of kinetic parameters and thermal stability tests were performed as in [20].
One unit of GK is defined as the amount of enzyme that phosphorylates 1 µmol of glucose per min at 30°C.

**Q.** Which results are given for `CS(=O)(=O)c1ccc([C@@]2(C(=O)Nc3nccs3)C[C@H]2C2CCCCC2)cc1` [LY2121260]?
**A.** S0.5 for glucose ([1]; 10 µM GK activator, 0.8% DMSO): 3.1 ± 0.3 mM; effect on S0.5 ([1]; 10 µM activator): did not affect; Kcat (%) ([2]; 10 µM GK activator, 0.8% DMSO, wild type with buffer = 100): 130.8±3.9 %; increase of Kcat ([2]; 10 µM activator): about 30%; increase of affinity for glucose ([2]; 10 µM activator): about 5 fold

**Q.** Which results are given for `O=C(CO)[C@@H](O)[C@@H](O)[C@H](O)[C@H](O)CO` [MH, mannoheptulose]?
**A.** IC50 ([3]; read-out: I50 for MH): 670 ± 40 µM; IC50 ([4]; read-out: I50 for MH): 3550 ± 630 µM; IC50 ([5]; read-out: I50 for MH): 1150 ± 370 µM

**Q.** `CC(=O)N[C@@H]1[C@@H](O)[C@H](O)[C@@H](CO)O[C@H]1O` [NAG, N-acetylglucosamine] was tested. Which IC50 ([3]; read-out: I50 for NAG) did it give?
**A.** Its IC50 is 200 ± 60 µM.

**Q.** And the “effect of mutation on inhibition by NAG” value ([3]; vs wild type)?
**A.** Its value is “did not affect the inhibition”.

**Q.** What about the IC50 ([4]; read-out: I50 for NAG) of the same molecule?
**A.** The IC50 was 380 ± 45 µM.

**Q.** What about the IC50 ([5]; read-out: I50 for NAG) of the same molecule?
**A.** Its IC50 is 210 ± 40 µM.

B1: GKRP: purified human glucokinase regulatory protein, competitive inhibitor with respect to glucose (protein, UniProt Q14397 1-625, looked up)
Glucokinase regulatory protein: MPGTKRFQHVIETPEPGKWELSGYEAAVPITEKSNPLTQDLDKADAENIVRLLGQCDAEIFQEEGQALSTYQRLYSESILTTMVQVAGKVQEVLKEPDGGLVVLSGGGTSGRMAFLMSVSFNQLMKGLGQKPLYTYLIAGGDRSVVASREGTEDSALHGIEELKKVAAGKKRVIVIGISVGLSAPFVAGQMDCCMNNTAVFLPVLVGFNPVSMARNDPIEDWSSTFRQVAERMQKMQEKQKAFVLNPAIGPEGLSGSSRMKGGSATKILLETLLLAAHKTVDQGIAASQRCLLEILRTFERAHQVTYSQSPKIATLMKSVSTSLEKKGHVYLVGWQTLGIIAIMDGVECIHTFGADFRDVRGFLIGDHSDMFNQKAELTNQGPQFTFSQEDFLTSILPSLTEIDTVVFIFTLDDNLTEVQTIVEQVKEKTNHIQALAHSTVGQTLPIPLKKLFPSIISITWPLLFFEYEGNFIQKFQRELSTKWVLNTVSTGAHVLLGKILQNHMLDLRISNSKLFWRALAMLQRFSGQSKARCIESLLRAIHFPQPLSDDIRAAPISCHVQVAHEKEQVIPIALLSLLFRCSITEAQAHLAAAPSVCEAVRSALAGPGQKRTADPLEILEPDVQ
**Q.** With B1 as the molecule, how does the “enzymatic inhibition by GKRP, mutant vs wild type” value [6] read?
**A.** Its value is “the same”.

B2: GST-GK (p.Ile130Thr): recombinant GST-glucokinase fusion protein with MODY2 mutation p.Ile130Thr (protein, UniProt P35557 1-465, looked up, variant I130T)
Hexokinase-4: T1 sequence (P35557 1-465 A449T) with I130T, T449A
modifications: N-terminal GST fusion
**Q.** Which S0.5 for glucose [7] does the source give for B2 here?
**A.** Its S0.5 for glucose is 8.59 ± 0.45 mM.

**Q.** And the “overall activity, % of the wild-type protein” value [7]?
**A.** Its value is “lower than 20%”.

**Q.** And the “nH (Hill coefficient)” value [7]?
**A.** The value was 1.01±0.02.

B3: GST-GK (p.Gly223Ser): recombinant GST-glucokinase fusion protein with MODY2 mutation p.Gly223Ser (protein, UniProt P35557 1-465, looked up, variant G223S)
Hexokinase-4: T1 sequence (P35557 1-465 A449T) with G223S, T449A
modifications: N-terminal GST fusion
**Q.** B3 was tested. Which S0.5 for glucose [7] did it give?
**A.** The S0.5 for glucose was 44.0 ± 3.81 mM.

**Q.** And the “overall activity, % of the wild-type protein” value [7]?
**A.** Its value is < 10%.

**Q.** What about the “nH (Hill coefficient)” value [7] of the same molecule?
**A.** The value was 1.13±0.01.

B4: GST-GK (p.Asp205His): recombinant GST-glucokinase fusion protein with MODY2 mutation p.Asp205His (protein, UniProt P35557 1-465, looked up, variant D205H)
Hexokinase-4: T1 sequence (P35557 1-465 A449T) with D205H, T449A
modifications: N-terminal GST fusion
**Q.** Which results are given for B4?
**A.** S0.5 for glucose [7]: No activity at all; nH (Hill coefficient) [7]: No activity at all
